According to ChEMBL document CHEMBL3352178, “Antidepressant- and anxiolytic-like activity of 7-phenylpiperazinylalkyl-1,3-dimethyl-purine-2,6-dione derivatives with diversified 5-HT₁A receptor functional profile” (Bioorg Med Chem, 2015):
Active and inactive are the calls of the source. The calls are words filed in the database; no cut-off is given here.

Tests used:
Rattus norvegicus [1] = test: Induction of lower lip retraction in rat assessed as lower lip retraction scores at 10 mg/kg, ip dosed 15 mins before test; assay type: functional; settings: route intraperitoneal
Mus musculus [2] = test: Antidepressant-like activity in mouse assessed as reduction in immobility time at 1.25 mg/kg, ip dosed 60 mins before test by forced swim test; assay type: functional; parameters: scale not given: the % may be the effect or the level left; settings: route intraperitoneal
Mus musculus [3] = test: Induction of hypothermia in mouse assessed as change in body temperature at 10 mg/kg, ip administered 30 mins before test and measured 90 mins post dose; assay type: functional, organism-based; parameters: dose 10 mg/kg
[4] = target: 5-hydroxytryptamine receptor 2A (Rattus norvegicus, UniProt P14842); test: Displacement of [3H]-ketanserin from 5-HT2AR in rat cortex
Chain of 5-hydroxytryptamine receptor 2A (P14842 whole entry): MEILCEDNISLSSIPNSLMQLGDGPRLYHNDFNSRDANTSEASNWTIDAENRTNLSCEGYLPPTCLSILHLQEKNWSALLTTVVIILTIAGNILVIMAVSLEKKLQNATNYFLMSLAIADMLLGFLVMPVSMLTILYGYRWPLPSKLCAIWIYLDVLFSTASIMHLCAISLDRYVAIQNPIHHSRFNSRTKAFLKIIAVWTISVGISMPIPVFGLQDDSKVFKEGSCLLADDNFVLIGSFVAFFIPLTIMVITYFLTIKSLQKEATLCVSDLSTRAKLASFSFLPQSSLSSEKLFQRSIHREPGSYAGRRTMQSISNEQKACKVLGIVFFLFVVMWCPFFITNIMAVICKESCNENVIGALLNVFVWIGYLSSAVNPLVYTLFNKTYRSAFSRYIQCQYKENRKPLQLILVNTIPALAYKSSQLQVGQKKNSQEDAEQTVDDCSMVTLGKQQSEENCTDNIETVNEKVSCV

Mus musculus [5] = test: Antidepressant-like activity in mouse assessed as reduction in immobility time at 0.625 mg/kg, ip dosed 60 mins before test by forced swim test; assay type: functional; parameters: scale not given: the % may be the effect or the level left; settings: route intraperitoneal
Rattus norvegicus [6] = test: Induction of lower lip retraction in rat assessed as lower lip retraction scores at 10 mg/kg, ip dosed 45 mins after 0.3 mg/kg, sc 5HT1A receptor antagonist WAY 100635; assay type: functional
[7] = target: T1, 5-hydroxytryptamine receptor 1A (Rattus norvegicus, UniProt P19327); test: Displacement of [3H]-8-OH-DPAT from 5-HT1AR in rat hippocampus; assay type: tissue-based
T1 sequence (P19327 whole entry): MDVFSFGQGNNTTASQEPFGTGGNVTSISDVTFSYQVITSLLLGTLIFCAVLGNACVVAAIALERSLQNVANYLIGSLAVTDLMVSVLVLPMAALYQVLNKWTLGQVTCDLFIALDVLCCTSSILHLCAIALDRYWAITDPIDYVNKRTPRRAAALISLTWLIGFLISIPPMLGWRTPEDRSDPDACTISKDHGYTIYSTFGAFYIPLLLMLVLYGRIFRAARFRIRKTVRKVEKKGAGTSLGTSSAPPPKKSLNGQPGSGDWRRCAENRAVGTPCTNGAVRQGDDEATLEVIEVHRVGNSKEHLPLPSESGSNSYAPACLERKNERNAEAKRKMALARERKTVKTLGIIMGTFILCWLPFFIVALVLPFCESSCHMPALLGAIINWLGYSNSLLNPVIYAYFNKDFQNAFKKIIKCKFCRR

Mus musculus [8] = test: Induction of hypothermia in mouse assessed as change in body temperature at 10 mg/kg, ip administered 30 mins before test and measured 30 mins post dose; assay type: functional, organism-based; parameters: dose 10 mg/kg
[9] = target: 5-hydroxytryptamine receptor 7 (Homo sapiens, UniProt P34969); test: Displacement of [3H]]-5-CT from human cloned 5-HT7R expressed in HEK293 cells; assay type: cell-based
Chain of 5-hydroxytryptamine receptor 7 (P34969 whole entry): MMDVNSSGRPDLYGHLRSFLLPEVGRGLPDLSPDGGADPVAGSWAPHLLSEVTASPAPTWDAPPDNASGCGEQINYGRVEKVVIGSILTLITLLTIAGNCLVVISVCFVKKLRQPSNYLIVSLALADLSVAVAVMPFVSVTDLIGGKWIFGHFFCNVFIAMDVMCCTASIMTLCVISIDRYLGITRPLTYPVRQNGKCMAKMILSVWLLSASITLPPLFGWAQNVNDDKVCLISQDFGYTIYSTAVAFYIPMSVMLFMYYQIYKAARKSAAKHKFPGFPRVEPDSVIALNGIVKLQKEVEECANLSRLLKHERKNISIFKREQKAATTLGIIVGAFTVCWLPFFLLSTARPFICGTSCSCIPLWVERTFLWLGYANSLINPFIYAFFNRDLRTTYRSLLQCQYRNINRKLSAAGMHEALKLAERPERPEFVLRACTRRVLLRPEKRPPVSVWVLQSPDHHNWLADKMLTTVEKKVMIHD

Mus musculus [10] = test: Antidepressant-like activity in mouse assessed as reduction in immobility time at 0.625 mg/kg, ip dosed 60 mins before test in presence of 0.3 mg/kg, sc 5HT1A receptor antagonist WAY 100635 by forced swim test; assay type: functional, organism-based
Mus musculus [11] = test: Induction of hypothermia in mouse assessed as change in body temperature at 5 mg/kg, ip administered 30 mins before test and measured 30 mins post dose; assay type: functional, organism-based; parameters: dose 5 mg/kg
Mus musculus [12] = test: Induction of hypothermia in mouse assessed as change in body temperature at 5 mg/kg, ip administered 30 mins before test and measured 60 mins post dose; assay type: functional, organism-based; parameters: dose 5 mg/kg
D(2) dopamine receptor = D(2) dopamine receptor (Rattus norvegicus, UniProt P61169); test: Displacement of [3H]-spiperone from dopamine D2 receptor in rat striatum
Chain of D(2) dopamine receptor (P61169 whole entry): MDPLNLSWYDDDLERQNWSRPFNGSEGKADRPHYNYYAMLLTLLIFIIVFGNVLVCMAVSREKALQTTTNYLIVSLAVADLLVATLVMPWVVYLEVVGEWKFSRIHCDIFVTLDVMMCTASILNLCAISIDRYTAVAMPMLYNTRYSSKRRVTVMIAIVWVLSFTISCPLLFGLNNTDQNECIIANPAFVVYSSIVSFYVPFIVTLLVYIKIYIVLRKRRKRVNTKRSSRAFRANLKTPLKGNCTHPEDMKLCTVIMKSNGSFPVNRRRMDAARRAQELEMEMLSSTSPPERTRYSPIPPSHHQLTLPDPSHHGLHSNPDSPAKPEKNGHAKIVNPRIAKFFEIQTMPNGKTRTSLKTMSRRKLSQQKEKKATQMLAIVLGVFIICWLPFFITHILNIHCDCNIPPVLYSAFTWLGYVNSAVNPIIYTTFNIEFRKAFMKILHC

Mus musculus [13] = test: Induction of hypothermia in mouse assessed as change in body temperature at 10 mg/kg, ip administered 30 mins before test and measured 60 mins post dose in presence of 0.3 mg/kg, sc 5HT1A receptor antagonist WAY 100635; assay type: functional, organism-based
Mus musculus [14] = test: Effect on spontaneous locomotor activity in ip dosed mouse during 2 to 6 mins; assay type: ADME, organism-based; settings: in vivo
Mus musculus [15] = test: Induction of hypothermia in mouse assessed as change in body temperature at 10 mg/kg, ip administered 30 mins before test and measured 120 mins post dose; assay type: functional, organism-based; parameters: dose 10 mg/kg
[16] = target: 5-hydroxytryptamine receptor 6 (Homo sapiens, UniProt P50406); test: Displacement of [3H]LSD from human cloned 5-HT6R expressed in HEK293 cells; assay type: cell-based
Chain of 5-hydroxytryptamine receptor 6 (P50406 whole entry): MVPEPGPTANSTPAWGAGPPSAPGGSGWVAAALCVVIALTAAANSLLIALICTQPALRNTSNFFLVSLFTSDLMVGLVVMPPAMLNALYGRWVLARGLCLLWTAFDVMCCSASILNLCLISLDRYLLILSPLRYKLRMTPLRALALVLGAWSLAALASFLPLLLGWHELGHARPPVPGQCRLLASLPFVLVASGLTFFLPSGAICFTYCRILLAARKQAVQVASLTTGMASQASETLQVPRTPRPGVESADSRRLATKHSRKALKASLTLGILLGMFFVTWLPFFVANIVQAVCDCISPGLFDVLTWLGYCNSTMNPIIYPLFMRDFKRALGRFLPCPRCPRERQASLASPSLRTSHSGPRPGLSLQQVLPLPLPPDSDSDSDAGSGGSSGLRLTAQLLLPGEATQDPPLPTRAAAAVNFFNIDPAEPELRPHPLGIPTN

Mus musculus [17] = test: Induction of hypothermia in mouse assessed as change in body temperature at 5 mg/kg, ip administered 30 mins before test and measured 120 mins post dose; assay type: functional, organism-based; parameters: dose 5 mg/kg
Rattus norvegicus [18] = test: Induction of lower lip retraction in rat assessed as lower lip retraction scores at 5 mg/kg, ip dosed 15 mins before test; assay type: functional; settings: route intraperitoneal
Mus musculus [19] = test: Induction of hypothermia in mouse assessed as change in body temperature at 10 mg/kg, ip administered 30 mins before test and measured 60 mins post dose; assay type: functional, organism-based; parameters: dose 10 mg/kg
Rattus norvegicus [20] = test: Inhibition of 8-OH-DPAT-induced lower lip retraction in rat assessed as lower lip retraction scores at 5 mg/kg, ip dosed 45 mins before 8-OH-DPAT; assay type: functional; settings: route intraperitoneal
Mus musculus [21] = test: Induction of hypothermia in mouse assessed as change in body temperature at 10 mg/kg, ip administered 30 mins before test and measured 30 mins post dose in presence of 0.3 mg/kg, sc 5HT1A receptor antagonist WAY 100635; assay type: functional, organism-based
Mus musculus [22] = test: Induction of hypothermia in mouse assessed as change in body temperature at 5 mg/kg, ip administered 30 mins before test and measured 90 mins post dose; assay type: functional, organism-based; parameters: dose 5 mg/kg
Rattus norvegicus [23] = test: Induction of lower lip retraction in rat assessed as lower lip retraction scores at 1 mg/kg, ip dosed 15 mins before test; assay type: functional; settings: route intraperitoneal
Mus musculus [24] = test: Anxiolytic-like activity in mouse assessed as increase in number of punished crossings at 0.312 mg/kg, ip dosed 60 mins before test by four plate test; assay type: functional; settings: route intraperitoneal
Mus musculus [25] = test: Induction of hypothermia in mouse assessed as change in body temperature at 2.5 mg/kg, ip administered 30 mins before test and measured 90 mins post dose; assay type: functional, organism-based; parameters: dose 2.5 mg/kg
Mus musculus [26] = test: Effect on spontaneous locomotor activity in mouse at 0.312 mg/kg, ip; assay type: ADME, organism-based; parameters: dose 0.312 mg/kg, route intraperitoneal; settings: in vivo
Mus musculus [27] = test: Anxiolytic-like activity in mouse assessed as increase in number of punished crossings at 0.625 mg/kg, ip dosed 60 mins before test by four plate test; assay type: functional; settings: route intraperitoneal
Mus musculus [28] = test: Induction of hypothermia in mouse assessed as change in body temperature at 2.5 mg/kg, ip administered 30 mins before test and measured 60 mins post dose in presence of 0.3 mg/kg, sc 5HT1A receptor antagonist WAY 100635; assay type: functional, organism-based
Rattus norvegicus [29] = test: Inhibition of 8-OH-DPAT-induced lower lip retraction in rat assessed as lower lip retraction scores at 1 mg/kg, ip dosed 45 mins before 8-OH-DPAT; assay type: functional; settings: route intraperitoneal
Mus musculus [30] = test: Inhibition of (+/-)-DOI-induced head twitch response in mouse assessed as head twitches per 20 mins at 0.625 mg/kg, ip dosed 60 mins before (+/-)-DOI injection (reference value: 21.6 +/- 3.4/20 mins); assay type: functional; settings: route intraperitoneal
Mus musculus [31] = test: Induction of hypothermia in mouse assessed as change in body temperature at 2.5 mg/kg, ip administered 30 mins before test and measured 30 mins post dose; assay type: functional, organism-based; parameters: dose 2.5 mg/kg
Mus musculus [32] = test: Induction of hypothermia in mouse assessed as change in body temperature at 2.5 mg/kg, ip administered 30 mins before test and measured 30 mins post dose in presence of 0.3 mg/kg, sc 5HT1A receptor antagonist WAY 100635; assay type: functional, organism-based
Mus musculus [33] = test: Anxiolytic-like activity in mouse assessed as increase in number of punished crossings at 0.156 mg/kg, ip dosed 60 mins before test co-administered with 0.625 mg/kg diazepam by four plate test; assay type: functional, organism-based
Mus musculus [34] = test: Inhibition of (+/-)-DOI-induced head twitch response in mouse assessed as head twitches per 20 mins at 10 mg/kg, ip dosed 60 mins before (+/-)-DOI injection (reference value: 21.6 +/- 3.4/20 mins); assay type: functional; settings: route intraperitoneal
Rattus norvegicus [35] = test: Inhibition of 8-OH-DPAT-induced lower lip retraction in rat assessed as lower lip retraction scores at 10 mg/kg, ip dosed 45 mins before 8-OH-DPAT; assay type: functional; settings: route intraperitoneal
Mus musculus [36] = test: Effect on spontaneous locomotor activity in mouse at 0.625 mg/kg, ip; assay type: ADME, organism-based; parameters: dose 0.625 mg/kg, route intraperitoneal; settings: in vivo
Mus musculus [37] = test: Induction of hypothermia in mouse assessed as change in body temperature at 2.5 mg/kg, ip administered 30 mins before test and measured 120 mins post dose; assay type: functional, organism-based; parameters: dose 2.5 mg/kg
Mus musculus [38] = test: Inhibition of (+/-)-DOI-induced head twitch response in mouse assessed as head twitches per 20 mins at 5 mg/kg, ip dosed 60 mins before (+/-)-DOI injection (reference value: 21.6 +/- 3.4/20 mins); assay type: functional; settings: route intraperitoneal
Mus musculus [39] = test: Induction of hypothermia in mouse assessed as change in body temperature at 2.5 mg/kg, ip administered 30 mins before test and measured 60 mins post dose; assay type: functional, organism-based; parameters: dose 2.5 mg/kg
Mus musculus [40] = test: Antidepressant-like activity in mouse assessed as reduction in immobility time at 0.156 to 5 mg/kg, ip dosed 60 mins before test by forced swim test; assay type: functional, organism-based
Mus musculus [41] = test: Inhibition of (+/-)-DOI-induced head twitch response in mouse assessed as head twitches per 20 mins at 1.25 mg/kg, ip dosed 60 mins before (+/-)-DOI injection (reference value: 21.6 +/- 3.4/20 mins); assay type: functional; settings: route intraperitoneal
Mus musculus [42] = test: Inhibition of (+/-)-DOI-induced head twitch response in mouse assessed as head twitches per 20 mins at 2.5 mg/kg, ip dosed 60 mins before (+/-)-DOI injection (reference value: 21.6 +/- 3.4/20 mins); assay type: functional; settings: route intraperitoneal
Mus musculus [43] = test: Inhibition of (+/-)-DOI-induced head twitch response in mouse dosed intraperitoneally 60 mins before (+/-)-DOI injection; assay type: functional

For `COc1ccccc1N1CCN(CCCCCn2cnc3c2c(=O)n(C)c(=O)n3C)CC1.Cl`, the Activity (Rattus norvegicus [1]) was 0.8, the Activity (Mus musculus [2]) was 35% and the deltaT (Mus musculus [3]) was -0.9 °C. The Ki [4] was 0.598 µM, the Activity (Mus musculus [5]) was 30% and the Activity (Rattus norvegicus [6]) was 0.1. The Ki [7] was 0.001 µM, the deltaT (Mus musculus [8]) was -2.1 °C and the Ki [9] was 0.294 µM. The Activity (Mus musculus [10]) was “inactive”, the deltaT (Mus musculus [11]) was -1 °C and the deltaT (Mus musculus [12]) was -0.2 °C. For the same molecule, the Ki (D(2) dopamine receptor) was 0.033 µM, the deltaT (Mus musculus [13]) was -1.6 °C and the Activity (Mus musculus [14]) was “Non-toxic”. For the same molecule, the deltaT (Mus musculus [15]) was -0.4 °C, the Ki [16] was 8.99 µM and the deltaT (Mus musculus [17]) was 0.3 °C. It also gave an Activity (Rattus norvegicus [18]) of 0.6, a deltaT (Mus musculus [19]) of -1 °C and an Activity (Rattus norvegicus [20]) of 2.1. For the same molecule, the deltaT (Mus musculus [21]) was -1.8 °C and the deltaT (Mus musculus [22]) was 0.3 °C.

For `Cl.Cn1c(=O)c2c(ncn2CCCCCN2CCN(c3cccc(Cl)c3)CC2)n(C)c1=O`, the Activity (Rattus norvegicus [23]) was 0.2, the Activity (Rattus norvegicus [1]) was 0.1 and the Activity (Mus musculus [24]) was 71%. The deltaT (Mus musculus [25]) was -1.5 °C, the Ki [4] was 0.054 µM and the Activity (Mus musculus [26]) was “Non-toxic”. The Ki [7] was 0.005 µM, the Ki [9] was 0.131 µM and the Activity (Mus musculus [27]) was 57%. The deltaT (Mus musculus [28]) was -2 °C, the deltaT (Mus musculus [11]) was -2.2 °C and the deltaT (Mus musculus [12]) was -1.4 °C. For the same molecule, the Activity (Rattus norvegicus [29]) was 1.8, the Ki (D(2) dopamine receptor) was 0.04 µM and the Activity (Mus musculus [30]) was 12.8. The deltaT (Mus musculus [31]) was -2.1 °C, the deltaT (Mus musculus [32]) was -1.8 °C and the Activity (Mus musculus [33]) was “Active”. For the same molecule, the Activity (Mus musculus [34]) was 1.3, the Activity (Rattus norvegicus [35]) was 0.5 and the Ki [16] was 1.2 µM. For the same molecule, the deltaT (Mus musculus [17]) was 0.3 °C, the Activity (Mus musculus [36]) was “Non-toxic” and the deltaT (Mus musculus [37]) was -1.3 °C. It also gave an Activity (Mus musculus [38]) of 5.8, an Activity (Rattus norvegicus [18]) of 0.3 and a deltaT (Mus musculus [39]) of -1.8 °C. For the same molecule, the Activity (Mus musculus [40]) was “inactive”, the Activity (Mus musculus [41]) was 10.8 and the Activity (Rattus norvegicus [20]) was 1.1. The Activity (Mus musculus [42]) was 8.2, the deltaT (Mus musculus [22]) was -1.1 °C and the inhibition (Mus musculus [43]) was “Dose-dependent effect”. For the same molecule, the ED50 (Mus musculus [43]; ip, read-out: ID50 (the source's name)) was 2.54 mg/kg.
